# Assay results reported in ChEMBL document CHEMBL5725517, “Azapeptides as CD36 binding compounds” (2017).
# Starred links: 1 amine or outer side, 2 acyl side, 3 side chain; linkers in the order of their positions; H or OH if unused. Non-standard residues stand in square brackets, D forms with d. Residues, ends and D or L forms follow the SMILES beside them. X4 = O=C(N(Cc1ccc(-c2ccccc2)cc1)N[*:1])[*:2]; azaTyr = O=C(N(Cc1ccc(O)cc1)N[*:1])[*:2]; X3 = O=C(N(Cc1cccc2ccccc12)N[*:1])[*:2]; azaPhe = O=C(N(Cc1ccccc1)N[*:1])[*:2]; X2 = O=C(N(CCc1ccccc1)N[*:1])[*:2]; azaLeu = CC(C)CN(N[*:1])C(=O)[*:2]; X1 = O=C(N(CC1CCCCC1)N[*:1])[*:2]
# Assay: HS-R1a radioreceptor assay: GHS-R1a radioreceptor assay using LLCPK-1 membranes overexpressing GSH-R1a and radioiodinated (1-28) rat ghrelin as tracer.
row,Compound,EC50 [µM]
1,C[C@H](NC(=O)N(CC1CCCCC1)NC(=O)[C@@H](N)Cc1cnc[nH]1)C(=O)N[C@@H](Cc1c[nH]c2ccccc12)C(=O)N[C@H](Cc1ccccc1)C(=O)N[C@@H](CCCCN)C(N)=O (H-H[X1]AW[dF]K-NH2),5.49
2,C[C@H](NC(=O)N(Cc1ccccc1)NC(=O)[C@@H](N)Cc1cnc[nH]1)C(=O)N[C@@H](Cc1c[nH]c2ccccc12)C(=O)N[C@H](Cc1ccccc1)C(=O)N[C@@H](CCCCN)C(N)=O (H-H[azaPhe]AW[dF]K-NH2),16.1
3,C[C@H](NC(=O)[C@@H](Cc1c[nH]c2ccccc12)NC(=O)[C@@H](N)Cc1cnc[nH]1)C(=O)N[C@@H](Cc1ccc(O)cc1)C(=O)N[C@H](Cc1ccccc1)C(=O)N[C@@H](CCCCN)C(N)=O (H-H[dW]AY[dF]K-NH2),0.771
4,C[C@H](NC(=O)[C@@H](Cc1c[nH]c2ccccc12)NC(=O)[C@@H](N)Cc1cnc[nH]1)C(=O)NN(CC1CCCCC1)C(=O)N[C@H](Cc1ccccc1)C(=O)N[C@@H](CCCCN)C(N)=O (H-H[dW]A[X1][dF]K-NH2),4.28
5,C[C@H](NC(=O)[C@@H](Cc1c[nH]c2ccccc12)NC(=O)[C@@H](N)Cc1cnc[nH]1)C(=O)NN(CCc1ccccc1)C(=O)N[C@H](Cc1ccccc1)C(=O)N[C@@H](CCCCN)C(N)=O (H-H[dW]A[X2][dF]K-NH2),3.74
6,C[C@H](NC(=O)[C@@H](Cc1c[nH]c2ccccc12)NC(=O)[C@@H](N)Cc1cnc[nH]1)C(=O)NN(Cc1cccc2ccccc12)C(=O)N[C@H](Cc1ccccc1)C(=O)N[C@@H](CCCCN)C(N)=O (H-H[dW]A[X3][dF]K-NH2),0.723
7,C[C@H](NC(=O)[C@@H](Cc1c[nH]c2ccccc12)NC(=O)[C@@H](N)Cc1cnc[nH]1)C(=O)NN(Cc1ccc(-c2ccccc2)cc1)C(=O)N[C@H](Cc1ccccc1)C(=O)N[C@@H](CCCCN)C(N)=O (H-H[dW]A[X4][dF]K-NH2),1.34
8,CC(C)CN(NC(=O)[C@H](C)NC(=O)[C@@H](Cc1c[nH]c2ccccc12)NC(=O)[C@@H](N)Cc1cnc[nH]1)C(=O)N[C@H](Cc1ccccc1)C(=O)N[C@@H](CCCCN)C(N)=O (H-H[dW]A[azaLeu][dF]K-NH2),19.5
9,C[C@H](NC(=O)[C@@H](Cc1c[nH]c2ccccc12)NC(=O)[C@@H](N)Cc1cnc[nH]1)C(=O)NN(Cc1ccccc1)C(=O)N[C@H](Cc1ccccc1)C(=O)N[C@@H](CCCCN)C(N)=O (H-H[dW]A[azaPhe][dF]K-NH2),2.77
10,C[C@H](NC(=O)[C@@H](Cc1c[nH]c2ccccc12)NC(=O)[C@@H](N)Cc1cnc[nH]1)C(=O)NN(Cc1ccc(O)cc1)C(=O)N[C@H](Cc1ccccc1)C(=O)N[C@@H](CCCCN)C(N)=O (H-H[dW]A[azaTyr][dF]K-NH2),15.7
11,C[C@H](NC(=O)[C@@H](Cc1c[nH]c2ccccc12)NC(=O)[C@@H](N)Cc1cnc[nH]1)C(=O)N[C@H](Cc1ccc(O)cc1)C(=O)N[C@H](Cc1ccccc1)C(=O)N[C@@H](CCCCN)C(N)=O (H-H[dW]A[dY][dF]K-NH2),3.25
12,CC(C)CN(NC(=O)[C@@H](Cc1c[nH]c2ccccc12)NC(=O)[C@@H](N)Cc1cnc[nH]1)C(=O)N[C@@H](Cc1c[nH]c2ccccc12)C(=O)N[C@H](Cc1ccccc1)C(=O)N[C@@H](CCCCN)C(N)=O (H-H[dW][azaLeu]W[dF]K-NH2),1.2
